In brackets after ≈: the same amount, converted by molar mass. Like-named read-outs stand apart in the source and are kept apart here.
Tests used:
Assay type in all cases: cell-based
Fusarium oxysporum (Fo) = assay: Minimum inhibitory concentration (MIC) in malt yeast agar, Fusarium oxysporum
Summary of the method: (§1)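 Malt yeast agar pH 5.5 + cpd (from 1% soln in acetone/water) at final 500–zero ppm, poured at 48 °C, dried 24 h. Inoculum: 7-day 30 °C slants suspended in saline/octylphenoxy polyethoxy ethanol, diluted 1:9, replicator-spotted. Incubated 30 °C; read 48 h yeast, 72 h fungi.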

Aspergillus niger (An) = assay: Minimum inhibitory concentration (MIC) in malt yeast agar, Aspergillus niger
Summary of the method: as §1

[1] = test system: Penicillium chrysogenum (Pc); assay: Minimum inhibitory concentration (MIC) in malt yeast agar, Penicillium chrysogenum; details: pH 5.5; malt yeast agar, 30° C., 72 hours for fungi; read-out: Minimum Inhibitory Concentration, PC
Summary of the method: as §1

[2] = test system: Staphylococcus aureus (Sa); assay: Minimum inhibitory concentration (MIC) in nutrient agar, Staphylococcus aureus
Summary of the method: (§2)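 Neutral (pH 6.8) and alkaline (pH 8.2) nutrient agar plates carrying 1.0–500 ppm compound (final) are replicator-inoculated with each bacterium at 10^8 CFU/mL. After 48 h incubation at 30° C, the lowest compound concentration without growth is recorded.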

[3] = test system: Aureobasidium pullulan (Ap); assay: Minimum inhibitory concentration (MIC) in malt yeast agar, Aureobasidium pullulan; details: pH 5.5; malt yeast agar, 30° C.; read-out: Minimum Inhibitory Concentration, Ap
Summary of the method: as §1

[4] = test system: Saccharomyces cerevisiae (Sc); assay: Minimum inhibitory concentration (MIC) in malt yeast agar, Saccharomyces cerevisiae; details: pH 5.5, malt yeast agar, 30° C., 48 hours for yeast, read-out: Minimum Inhibitory Concentration, SC
Summary of the method: (§3)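 Plates of pH 5.5 malt yeast agar carried test compound dispersed from a one percent acetone–water solution, final 500 to zero ppm. After diluted slant-culture suspensions were applied, plates were kept at 30 °C and examined at 72 h for fungi, 48 h for yeast.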

[5] = test system: Pseudomonas aeruginosa (PRD-10); assay: Minimum inhibitory concentration (MIC) in nutrient agar, Pseudomonas aeruginosa PRD-10
Summary of the method: as §2

Proteus vulgaris (Pv) = assay: Minimum inhibitory concentration (MIC) in nutrient agar, Proteus vulgaris; details: 48 h
Summary of the method: as §2

Bacillus subtilis (Bs) = assay: Minimum inhibitory concentration (MIC) in nutrient agar, Bacillus subtilis
Summary of the method: as §2

[6] = test system: Pseudomonas aeruginosa (Pa); assay: Minimum inhibitory concentration (MIC) in nutrient agar, Pseudomonas aeruginosa; details: 30° C., 48 hours, read-out: Minimum Inhibitory Concentration, Pa
Summary of the method: as §2

[7] = test system: Salmonella choleraesuis (Se); assay: Minimum inhibitory concentration (MIC) in nutrient agar, Salmonella choleraesuis; details: Salmonella enterica, 48 h
Summary of the method: as §2

Trichoderma viride (Tv) = assay: Minimum inhibitory concentration (MIC) in malt yeast agar, Trichoderma viride
Summary of the method: as §1

Candida albicans (Ca) = assay: Minimum inhibitory concentration (MIC) in malt yeast agar, Candida albicans
Summary of the method: as §3

[8] = test system: Klebsiella pneumoniae (Kp); assay: Minimum inhibitory concentration (MIC) in nutrient agar, Klebsiella pneumoniae
Summary of the method: as §2

Escherichia coli (Ec) = assay: Minimum inhibitory concentration (MIC) in nutrient agar, Escherichia coli
Summary of the method: as §2

[9] = test system: Enterobacter aerogenes (Ea); assay: Minimum inhibitory concentration (MIC) in nutrient agar, Enterobacter aerogenes; details: Klebsiella aerogenes, 48 h
Summary of the method: as §2

[10] = pH 5.5, malt yeast agar, 30° C., 72 hours for fungi, read-out: Minimum Inhibitory Concentration, Fo
[11] = 48 h, pH 8.2, read-out: Minimum Inhibitory Concentration, Sa
[12] = pH 6.8, nutrient agar, 30° C., 48 hours, read-out: Minimum Inhibitory Concentration, Sa
[13] = 48 h, pH 6.8, read-out: Minimum Inhibitory Concentration, PRD
[14] = 48 h, pH 8.2, read-out: Minimum Inhibitory Concentration, PRD
[15] = pH 6.8, read-out: Minimum Inhibitory Concentration, Pv
[16] = pH 8.2, read-out: Minimum Inhibitory Concentration, Pv
[17] = 48 h, pH 8.2, read-out: Minimum Inhibitory Concentration, Bs
[18] = pH 6.8, nutrient agar, 30° C., 48 hours, read-out: Minimum Inhibitory Concentration, Bs
[19] = pH 6.8, read-out: Minimum Inhibitory Concentration, SC
[20] = pH 8.2, read-out: Minimum Inhibitory Concentration, SC
[21] = pH 5.5, malt yeast agar, 30° C., 72 hours for fungi, read-out: Minimum Inhibitory Concentration, Tv
[22] = pH 5.5, malt yeast agar, 30° C., 48 hours for yeast, read-out: Minimum Inhibitory Concentration, Ca
[23] = 48 h, pH 8.2, read-out: Minimum Inhibitory Concentration, Kp
[24] = pH 6.8, nutrient agar, 30° C., 48 hours, read-out: Minimum Inhibitory Concentration, Kp
[25] = 48 h, pH 6.8, read-out: Minimum Inhibitory Concentration, Ec
[26] = pH 6.8, read-out: Minimum Inhibitory Concentration, Ea
[27] = pH 8.2, read-out: Minimum Inhibitory Concentration, Ea
[28] = 72 h, pH 5.5, read-out: Minimum Inhibitory Concentration, Fo
[29] = pH 5.5, malt yeast agar, 30° C., 72 hours for fungi, read-out: Minimum Inhibitory Concentration, An
[30] = 48 h, pH 5.5, read-out: Minimum Inhibitory Concentration, Ca
[31] = pH 8.2, nutrient agar, 30° C., 48 hours, read-out: Minimum Inhibitory Concentration, Ec
[32] = pH 8.2, nutrient agar, 30° C., 48 hours, read-out: Minimum Inhibitory Concentration, Bs

SMILES | MIC [1] | MIC [2, 11] | MIC [2, 12] | MIC [3] | MIC [4] | MIC [5, 13] | MIC [5, 14] | MIC (Proteus vulgaris (Pv); [15]) | MIC (Proteus vulgaris (Pv); [16]) | MIC (Bacillus subtilis (Bs); [18]) | MIC ([6]; pH 6.8, nutrient agar) | MIC ([6]; pH 8.2, nutrient agar) | MIC [7, 19] | MIC [7, 20] | MIC (Trichoderma viride (Tv); [21]) | MIC [8, 23] | MIC [8, 24] | MIC (Escherichia coli (Ec); [25]) | MIC [9, 26] | MIC [9, 27] | other results
N#CSCSc1nsnc1-c1ccc(Br)cc1 [Example XVII, 4-(4-Bromophenyl)-3-thiocyanatomethylthio-1,2,5-thiadiazole] | 9 µg/mL (≈ 26.1 µM) | > 500 µg/mL | > 500 µg/mL | 9 µg/mL (≈ 26.1 µM) | 9 µg/mL (≈ 26.1 µM) | > 500 µg/mL | > 500 µg/mL | > 500 µg/mL | > 500 µg/mL | 9 µg/mL (≈ 26.1 µM) | > 500 µg/mL | > 500 µg/mL | > 500 µg/mL | > 500 µg/mL | 500 µg/mL (≈ 1450 µM) | > 500 µg/mL | > 500 µg/mL | > 500 µg/mL | > 500 µg/mL | > 500 µg/mL | MIC (Fusarium oxysporum (Fo); [10]): 250 µg/mL (≈ 726 µM); MIC (Aspergillus niger (An); 72 h, pH 5.5, read-out: Minimum Inhibitory Concentration, An): 25 µg/mL (≈ 72.6 µM); MIC (Bacillus subtilis (Bs); [17]): 25 µg/mL (≈ 72.6 µM); MIC (Candida albicans (Ca); [22]): 500 µg/mL (≈ 1450 µM); MIC (Escherichia coli (Ec); 48 h, pH 8.2, read-out: Minimum Inhibitory Concentration, Ec): > 500 µg/mL
N#CSCSc1nsnc1-c1ccc(Cl)cc1 [Example XVIII, 4-(4-Chlorophenyl)-3-thiocyanatomethylthio-1,2,5-thiadiazole] | 9 µg/mL (≈ 30 µM) | > 500 µg/mL | 500 µg/mL (≈ 1670 µM) | 9 µg/mL (≈ 30 µM) | 9 µg/mL (≈ 30 µM) | 500 µg/mL (≈ 1670 µM) | > 500 µg/mL | 500 µg/mL (≈ 1670 µM) | > 500 µg/mL |  | 500 µg/mL (≈ 1670 µM) | > 500 µg/mL | 500 µg/mL (≈ 1670 µM) | > 500 µg/mL |  | > 500 µg/mL | 500 µg/mL (≈ 1670 µM) | 500 µg/mL (≈ 1670 µM) | 500 µg/mL (≈ 1670 µM) | > 500 µg/mL | MIC (Fusarium oxysporum (Fo); [28]): 100 µg/mL (≈ 334 µM); MIC (Aspergillus niger (An); [29]): 9 µg/mL (≈ 30 µM); MIC (Bacillus subtilis (Bs); 48 h, pH 6.8, read-out: Minimum Inhibitory Concentration, Bs): 500 µg/mL (≈ 1670 µM); MIC (Bacillus subtilis (Bs); [17]): 500 µg/mL (≈ 1670 µM); MIC (Trichoderma viride (Tv); 72 h, pH 5.5, read-out: Minimum Inhibitory Concentration, Tv): 250 µg/mL (≈ 834 µM); MIC (Candida albicans (Ca); [30]): 250 µg/mL (≈ 834 µM); MIC (Escherichia coli (Ec); [31]): 250 µg/mL (≈ 834 µM)
N#CSCSc1nsnc1-c1ccccc1Cl [Example XX, 4-(2-Chlorophenyl)-3-thiocyanatomethylthio-1,2,5-thiadiazole] | 9 µg/mL (≈ 30 µM) |  | 9 µg/mL (≈ 30 µM) | 9 µg/mL (≈ 30 µM) | 9 µg/mL (≈ 30 µM) | 500 µg/mL (≈ 1670 µM) | > 500 µg/mL | 500 µg/mL (≈ 1670 µM) | > 500 µg/mL | 9 µg/mL (≈ 30 µM) | 500 µg/mL (≈ 1670 µM) | > 500 µg/mL | 500 µg/mL (≈ 1670 µM) | > 500 µg/mL | > 500 µg/mL | > 500 µg/mL | 500 µg/mL (≈ 1670 µM) | 500 µg/mL (≈ 1670 µM) | 500 µg/mL (≈ 1670 µM) | > 500 µg/mL | MIC (Fusarium oxysporum (Fo); [28]): 25 µg/mL (≈ 83.4 µM); MIC (Aspergillus niger (An); [29]): 9 µg/mL (≈ 30 µM); MIC ([2]; pH 8.2, nutrient agar, 30° C., 48 hours, read-out: Minimum Inhibitory Concentration, Sa): 9 µg/mL (≈ 30 µM); MIC (Bacillus subtilis (Bs); [32]): 9 µg/mL (≈ 30 µM); MIC (Candida albicans (Ca); [30]): 250 µg/mL (≈ 834 µM); MIC (Escherichia coli (Ec); [31]): 250 µg/mL (≈ 834 µM)
N#CSCSc1nsnc1-c1ccc(F)cc1 [Example XXI, 4-(4-Fluorophenyl)-3-thiocyanatomethylthio-1,2,5-thiadiazole] | 9 µg/mL (≈ 31.8 µM) | > 500 µg/mL | 500 µg/mL (≈ 1760 µM) | 9 µg/mL (≈ 31.8 µM) | 9 µg/mL (≈ 31.8 µM) |  | > 500 µg/mL | 500 µg/mL (≈ 1760 µM) | > 500 µg/mL | 9 µg/mL (≈ 31.8 µM) |  | > 500 µg/mL | 500 µg/mL (≈ 1760 µM) | > 500 µg/mL | 25 µg/mL (≈ 88.2 µM) | > 500 µg/mL | 500 µg/mL (≈ 1760 µM) | 500 µg/mL (≈ 1760 µM) | 500 µg/mL (≈ 1760 µM) | > 500 µg/mL | MIC (Fusarium oxysporum (Fo); [10]): 9 µg/mL (≈ 31.8 µM); MIC (Aspergillus niger (An); [29]): 9 µg/mL (≈ 31.8 µM); MIC ([5]; pH 6.8, nutrient agar, 30° C., 48 hours, read-out: Minimum Inhibitory Concentration, PRD): 250 µg/mL (≈ 882 µM); MIC (Bacillus subtilis (Bs); [32]): 100 µg/mL (≈ 353 µM); MIC (Candida albicans (Ca); [22]): 9 µg/mL (≈ 31.8 µM); MIC (Escherichia coli (Ec); [31]): 250 µg/mL (≈ 882 µM)

From US5488060A, “Substituted thiadiazoles, compositions containing them and their use as antimicrobial and marine antifouling agents” (The Dow Chemical Company, priority 1994, dated 1996)
